Results: ChEMBL document CHEMBL1201862, “PubChem BioAssay data set” (2004)
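In this assay, cells in 96-well plates receive the compound at five concentrations for 48 hours. Endpoints are linearly interpolated between the surrounding concentrations. Abbreviation: GI50, concentration required for 50% inhibition of growth.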 Calls of active or inactive are those of the source. No stated cut-off is given here; in the data, active = GI50 up to about 1.1 µM and inactive = higher.

Columns and labels:
Assay in all cases: NCI-60 cell line screen, 48 h
MOLT-4 = system: MOLT-4
UACC-62 = system: UACC-62
UO-31 = system: UO-31
COLO 205 = system: COLO 205
Hs-578T = system: Hs-578T
DU-145 = system: DU-145
A549 = system: A549
M14 = system: M14
NCI/ADR-RES = system: NCI/ADR-RES
NCI-H23 = system: NCI-H23
MDA-MB-435 = system: MDA-MB-435
MDA-MB-231 = system: MDA-MB-231
SF-295 = system: SF-295
SK-MEL-5 = system: SK-MEL-5
HCT-116 = system: HCT-116
IGROV-1 = system: IGROV-1
SNB-19 = system: SNB-19
SK-MEL-28 = system: SK-MEL-28
OVCAR-4 = system: OVCAR-4

Measured: GI50

Cc1cccc(N2C(=O)C3c4[nH]c5ccccc5c4C4CCC(C(C)(C)C)CC4C3C2=O)c1C (centres undefined)
inactive: MOLT-4 > 100 µM | UACC-62 > 100 µM | UO-31 > 100 µM | COLO 205 > 100 µM | Hs-578T 25.8 µM | DU-145 > 100 µM | A549 47 µM | M14 > 100 µM | NCI/ADR-RES > 100 µM | NCI-H23 > 100 µM | MDA-MB-435 > 100 µM | MDA-MB-231 19 µM | SF-295 > 100 µM | SK-MEL-5 > 100 µM | HCT-116 28.7 µM | IGROV-1 > 100 µM | SNB-19 > 100 µM

CCCCCCSCC/C(C)=N\OC
inactive: MOLT-4 > 100 µM | UACC-62 > 100 µM | UO-31 > 100 µM | COLO 205 > 100 µM | DU-145 > 100 µM | A549 > 100 µM | M14 > 100 µM | NCI/ADR-RES > 100 µM | NCI-H23 > 100 µM | MDA-MB-435 > 100 µM | MDA-MB-231 > 100 µM | SK-MEL-28 > 100 µM | SF-295 > 100 µM | OVCAR-4 > 100 µM | SK-MEL-5 > 100 µM | HCT-116 > 100 µM | IGROV-1 > 100 µM | SNB-19 > 100 µM

O=S1(=O)Cc2ccc3c4c2-c2c(ccc5ccc(c-4c25)CS(=O)(=O)C3)C1
inactive: MOLT-4 23.1 µM | UACC-62 87.1 µM | UO-31 43.3 µM | Hs-578T > 100 µM | DU-145 > 100 µM | A549 > 100 µM | M14 > 100 µM | NCI/ADR-RES > 100 µM | MDA-MB-435 > 100 µM | MDA-MB-231 > 100 µM | SK-MEL-28 > 100 µM | SF-295 > 100 µM | OVCAR-4 > 100 µM | HCT-116 46.3 µM | IGROV-1 29.8 µM | SNB-19 > 100 µM

O=C1CCC[C@]2(CCC[C@@H](O)C2)N1
inactive: MOLT-4 > 10 µM | COLO 205 > 100 µM | Hs-578T > 100 µM | DU-145 > 100 µM | A549 > 100 µM | M14 > 100 µM | NCI/ADR-RES > 100 µM | MDA-MB-231 > 100 µM | SF-295 > 100 µM | OVCAR-4 > 100 µM | SK-MEL-5 > 100 µM | HCT-116 > 100 µM | IGROV-1 > 100 µM | SNB-19 > 100 µM

CCOC(=O)c1cn(CC)c2cc3c(cc2c1=O)CCS3(=O)=O
inactive: MOLT-4 > 100 µM | UACC-62 > 100 µM | UO-31 > 100 µM | Hs-578T > 100 µM | DU-145 > 100 µM | A549 > 100 µM | M14 > 100 µM | NCI/ADR-RES > 100 µM | NCI-H23 > 100 µM | MDA-MB-435 > 100 µM | MDA-MB-231 > 100 µM | SK-MEL-28 > 100 µM | SF-295 > 100 µM | SK-MEL-5 > 100 µM | HCT-116 > 100 µM | IGROV-1 > 100 µM | SNB-19 > 100 µM

O=C(NC1(C(=O)O)CC1c1ccccc1)c1ccccc1 (centres undefined)
inactive: MOLT-4 > 100 µM | UACC-62 > 100 µM | UO-31 > 100 µM | COLO 205 > 100 µM | Hs-578T > 100 µM | DU-145 > 100 µM | A549 > 100 µM | M14 > 100 µM | NCI/ADR-RES > 100 µM | NCI-H23 > 100 µM | MDA-MB-435 > 100 µM | MDA-MB-231 > 100 µM | SK-MEL-28 > 100 µM | SF-295 > 100 µM | OVCAR-4 > 100 µM | HCT-116 > 100 µM | IGROV-1 > 100 µM | SNB-19 > 100 µM

O=S(=O)(c1cc(Cl)ccc1Cl)N1CCN(c2cccc(Cl)c2)CC1
inactive: MOLT-4 > 100 µM | UO-31 > 100 µM | Hs-578T > 100 µM | DU-145 > 100 µM | A549 > 100 µM | M14 > 10 µM | NCI-H23 > 100 µM | MDA-MB-231 > 100 µM | SK-MEL-28 > 100 µM | SF-295 > 100 µM | OVCAR-4 > 100 µM | SK-MEL-5 52.6 µM | HCT-116 > 100 µM | IGROV-1 > 100 µM | SNB-19 > 100 µM

CCCCc1ccc(N2C(=O)c3cc([N+](=O)[O-])cnc3S2(=O)=O)cc1
inactive: MOLT-4 > 100 µM | UACC-62 > 100 µM | UO-31 > 100 µM | COLO 205 > 100 µM | Hs-578T > 100 µM | A549 > 100 µM | M14 > 100 µM | NCI/ADR-RES 25.2 µM | NCI-H23 > 100 µM | MDA-MB-435 > 100 µM | MDA-MB-231 > 100 µM | SK-MEL-28 > 100 µM | SF-295 47.2 µM | OVCAR-4 > 100 µM | SK-MEL-5 > 100 µM | HCT-116 > 100 µM | IGROV-1 > 100 µM | SNB-19 52.1 µM

CN(C)CCOc1ccc([N+](=O)[O-])c2cccnc12
inactive: MOLT-4 60.8 µM | UACC-62 > 100 µM | UO-31 > 100 µM | COLO 205 43 µM | Hs-578T > 100 µM | DU-145 > 100 µM | A549 > 100 µM | M14 > 100 µM | NCI/ADR-RES > 100 µM | NCI-H23 > 100 µM | MDA-MB-435 > 100 µM | MDA-MB-231 30.2 µM | SK-MEL-28 > 100 µM | SF-295 > 100 µM | SK-MEL-5 > 100 µM | HCT-116 35.6 µM | IGROV-1 > 100 µM | SNB-19 > 100 µM

Cc1ccccc1C1SCc2nc3ccccc3n21 (centres undefined)
inactive: UACC-62 7.28 µM | UO-31 > 100 µM | COLO 205 > 100 µM | A549 > 100 µM | NCI-H23 12.8 µM | SK-MEL-28 23.6 µM | SF-295 48.9 µM | SK-MEL-5 5.19 µM | HCT-116 4.72 µM | IGROV-1 > 100 µM | SNB-19 > 100 µM

O=C(N/N=C(COc1ccccc1)\N=C\c1ccncc1)c1ccncc1
inactive: MOLT-4 82 µM | UACC-62 > 100 µM | COLO 205 > 100 µM | Hs-578T > 100 µM | DU-145 > 100 µM | A549 > 100 µM | M14 > 100 µM | NCI/ADR-RES > 100 µM | NCI-H23 > 100 µM | MDA-MB-435 > 100 µM | MDA-MB-231 > 100 µM | SK-MEL-28 > 100 µM | SF-295 > 100 µM | OVCAR-4 > 100 µM | HCT-116 > 100 µM | IGROV-1 > 100 µM | SNB-19 > 100 µM

Cc1cc(O)c2c(c1)C(C1OC(CO)C(O)C(O)C1O)c1cc(O)cc(O)c1C2=O (centres undefined)
inactive: MOLT-4 > 100 µM | UACC-62 > 100 µM | UO-31 > 100 µM | COLO 205 > 100 µM | DU-145 > 100 µM | A549 > 100 µM | M14 > 100 µM | NCI/ADR-RES > 100 µM | NCI-H23 > 100 µM | MDA-MB-435 > 100 µM | MDA-MB-231 > 100 µM | SK-MEL-28 > 100 µM | SF-295 > 100 µM | OVCAR-4 > 100 µM | SK-MEL-5 > 100 µM | HCT-116 > 100 µM | IGROV-1 > 100 µM | SNB-19 > 100 µM

CC1=NNC(=O)C1C1CC(c2c[nH]c3ccccc23)=NN=C1Cl (centres undefined)
inactive: MOLT-4 24.2 µM | UACC-62 85.7 µM | UO-31 31.2 µM | COLO 205 28.1 µM | Hs-578T 61.8 µM | DU-145 > 100 µM | A549 57.4 µM | M14 53.5 µM | NCI/ADR-RES > 100 µM | NCI-H23 39.4 µM | MDA-MB-435 48.9 µM | MDA-MB-231 46.6 µM | SK-MEL-28 87.5 µM | SF-295 53.1 µM | SK-MEL-5 42.8 µM | HCT-116 44.3 µM | IGROV-1 20.6 µM | SNB-19 40.9 µM

COc1ccc(/C=C/C(=O)N[C@@H]2C(=O)N3[C@@H]2SC(C)(C)[C@@H]3C(=O)O)cc1OC
inactive: MOLT-4 > 100 µM | UACC-62 > 100 µM | UO-31 > 100 µM | COLO 205 > 100 µM | Hs-578T > 100 µM | DU-145 > 100 µM | A549 > 100 µM | M14 > 100 µM | NCI/ADR-RES > 100 µM | NCI-H23 > 100 µM | MDA-MB-435 > 100 µM | MDA-MB-231 > 100 µM | SK-MEL-28 > 100 µM | SF-295 > 100 µM | OVCAR-4 > 100 µM | SK-MEL-5 > 100 µM | HCT-116 > 100 µM | SNB-19 > 100 µM

[O-][S+](c1ccccc1)c1ccc(/N=N/O)nc1 (centres undefined)
inactive: MOLT-4 > 100 µM | UACC-62 > 100 µM | UO-31 > 100 µM | COLO 205 > 100 µM | Hs-578T > 100 µM | DU-145 > 100 µM | A549 > 100 µM | M14 > 100 µM | NCI/ADR-RES > 100 µM | NCI-H23 > 100 µM | MDA-MB-231 > 100 µM | SK-MEL-28 > 100 µM | SF-295 > 100 µM | OVCAR-4 > 100 µM | SK-MEL-5 > 100 µM | HCT-116 > 100 µM | IGROV-1 > 100 µM | SNB-19 > 100 µM

CN(C)CCSc1cc(-c2ccccc2)c2ccccc2n1
inactive: MOLT-4 6.38 µM | UACC-62 2.59 µM | UO-31 10.6 µM | COLO 205 1.97 µM | Hs-578T 10.3 µM | DU-145 15.4 µM | A549 13.6 µM | M14 2.69 µM | NCI/ADR-RES 14.9 µM | NCI-H23 10 µM | MDA-MB-435 10.1 µM | MDA-MB-231 11.3 µM | SK-MEL-28 4.7 µM | SF-295 12.6 µM | SK-MEL-5 1.63 µM | HCT-116 7.43 µM | IGROV-1 12.9 µM | SNB-19 13.6 µM
